As a reminder, the IC50 is the concentration that gives 50% inhibition. The term EC50 denotes the concentration at which the effect is half-maximal.

Activity calls are given as the source filed them. The calls are words filed in the database; no cut-off is given here.

Consider 12 compounds from ChEMBL document CHEMBL2331215, “Discovery of novel N-substituted oxindoles as selective m1 and m4 muscarinic acetylcholine receptors partial agonists” (ACS Med Chem Lett, 2013).

The subject of series [1] is Cynomolgus monkey. In words: Cardiotoxicity in telemetered cynomolgus monkey assessed as prolongation of QRS duration at 1 to 3 mg/kg, sc measured after 1 to 4 hrs by telemetry method. Format: toxicity, organism-based, Macaca fascicularis. Set-up: route subcutaneous. The conditions noted are these: in vivo.
Series [2] concerns Mus musculus. In words: Induction of salivation in ddY mouse at 10 to 30 mg/kg, sc measured for 30 mins after drug administration. It counts as organism-based. Set-up: dose 10-30 mg/kg, route subcutaneous. The following applies: in vivo, 0.5 h.
Series [3] has as its target T1, Muscarinic acetylcholine receptor M1 (Homo sapiens) (UniProt P11229).
T1 sequence (whole entry): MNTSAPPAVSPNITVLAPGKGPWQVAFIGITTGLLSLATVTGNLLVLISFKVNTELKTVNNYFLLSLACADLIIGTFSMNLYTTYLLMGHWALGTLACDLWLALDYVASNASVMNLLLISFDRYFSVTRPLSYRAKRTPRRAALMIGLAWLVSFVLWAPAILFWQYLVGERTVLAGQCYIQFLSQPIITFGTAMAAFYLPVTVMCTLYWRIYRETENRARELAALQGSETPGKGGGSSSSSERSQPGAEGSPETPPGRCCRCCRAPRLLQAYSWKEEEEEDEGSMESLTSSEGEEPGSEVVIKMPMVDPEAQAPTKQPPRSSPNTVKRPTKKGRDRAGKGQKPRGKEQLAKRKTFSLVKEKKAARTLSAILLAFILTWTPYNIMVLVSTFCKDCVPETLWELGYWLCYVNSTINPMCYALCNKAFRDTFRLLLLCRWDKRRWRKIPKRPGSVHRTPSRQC
Kind of series: Agonist activity at M1 receptor (unknown origin) at 3 uM by calcium mobilization assay. It counts as functional.

Series [4] relates to Cynomolgus monkey. Kind of series: Induction of drowsiness in sc dosed cynomolgus monkey. Format: organism-based, Macaca fascicularis. The following applies: in vivo.
The test system of series [5] is Cynomolgus monkey. In words: Cardiotoxicity in telemetered cynomolgus monkey assessed as prolongation of QTc interval at 1 to 3 mg/kg, sc measured after 1 to 4 hrs by telemetry method. Format: toxicity, organism-based, Macaca fascicularis. Set-up: route subcutaneous. The following applies: in vivo.
Series [6] concerns Rattus norvegicus. Kind of series: Potentiation of haloperidol-induced catalepsy in Sprague-Dawley rats at 30 mg/kg, sc administered 15 mins after haloperidol injection measured after 45 mins. Set-up: dose 30 mg/kg, route subcutaneous. It counts as ADME, organism-based. The following applies: in vivo, 0.75 h.
Series [7] relates to Cynomolgus monkey. In words: Cardiotoxicity in telemetered cynomolgus monkey assessed as increase in heart rate at 1 to 3 mg/kg, sc measured after 1 to 4 hrs by telemetry method. Format: toxicity, organism-based, Macaca fascicularis. Also noted: route subcutaneous. The conditions noted are these: in vivo.
In series [8] the test system is Cynomolgus monkey. In words: Cardiotoxicity in telemetered cynomolgus monkey assessed as increase in mean blood pressure at 1 to 3 mg/kg, sc measured after 1 to 4 hrs by telemetry method. It counts as toxicity, organism-based, Macaca fascicularis. Also noted: route subcutaneous. The following applies: in vivo.
Series [9] deals with Muscarinic acetylcholine receptor M3 (Homo sapiens) (UniProt P20309). In words: Agonist activity at M3 receptor (unknown origin) at 3 uM by calcium mobilization assay. It counts as functional.
Chain of Muscarinic acetylcholine receptor M3 (Homo sapiens) (P20309 whole entry, looked up): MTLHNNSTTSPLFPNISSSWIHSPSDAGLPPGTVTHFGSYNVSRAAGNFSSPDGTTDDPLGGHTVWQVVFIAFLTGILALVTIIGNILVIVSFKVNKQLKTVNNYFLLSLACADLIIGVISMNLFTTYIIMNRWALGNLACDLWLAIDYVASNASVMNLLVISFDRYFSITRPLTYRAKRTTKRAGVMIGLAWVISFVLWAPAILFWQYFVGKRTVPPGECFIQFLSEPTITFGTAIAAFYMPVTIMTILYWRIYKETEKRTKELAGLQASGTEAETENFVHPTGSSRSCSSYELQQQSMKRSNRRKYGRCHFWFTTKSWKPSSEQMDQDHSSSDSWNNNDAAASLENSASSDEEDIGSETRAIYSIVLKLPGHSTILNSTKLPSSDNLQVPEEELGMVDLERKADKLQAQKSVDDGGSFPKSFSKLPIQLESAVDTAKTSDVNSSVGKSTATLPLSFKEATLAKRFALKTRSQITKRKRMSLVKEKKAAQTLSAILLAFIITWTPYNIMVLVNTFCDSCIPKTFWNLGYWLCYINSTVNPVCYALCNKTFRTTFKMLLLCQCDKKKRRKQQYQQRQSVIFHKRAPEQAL
In series [10] the test system is Cynomolgus monkey. In words: Induction of vomiting in sc dosed cynomolgus monkey. It counts as organism-based, Macaca fascicularis. The conditions noted are these: in vivo.
The test system of series [11] is Cynomolgus monkey. Kind of series: Induction of salivation in sc dosed cynomolgus monkey. It counts as organism-based, Macaca fascicularis. The conditions noted are these: in vivo.
The target of series [12] is T2, Muscarinic acetylcholine receptor M4 (Homo sapiens) (UniProt P08173).
T2 sequence (whole entry): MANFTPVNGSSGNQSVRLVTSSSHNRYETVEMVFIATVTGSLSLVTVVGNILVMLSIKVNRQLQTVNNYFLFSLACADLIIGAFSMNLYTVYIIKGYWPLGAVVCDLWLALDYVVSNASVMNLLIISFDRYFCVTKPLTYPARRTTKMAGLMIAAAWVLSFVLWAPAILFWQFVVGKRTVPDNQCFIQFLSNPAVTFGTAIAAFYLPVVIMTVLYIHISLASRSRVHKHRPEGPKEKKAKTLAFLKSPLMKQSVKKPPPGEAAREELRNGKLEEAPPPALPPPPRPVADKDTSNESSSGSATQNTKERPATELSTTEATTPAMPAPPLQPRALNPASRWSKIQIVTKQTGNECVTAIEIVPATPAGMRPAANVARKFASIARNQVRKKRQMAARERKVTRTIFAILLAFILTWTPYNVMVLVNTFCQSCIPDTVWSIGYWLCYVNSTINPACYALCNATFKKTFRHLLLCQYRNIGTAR
In words: Agonist activity at M4 receptor (unknown origin) at 3 uM by calcium mobilization assay. It counts as functional. (Calcium flux is commonly read through the fluorescence of an indicator in the cells.)

Series [13] deals with T3, Muscarinic acetylcholine receptor M2 (Homo sapiens) (UniProt P08172).
T3 sequence (whole entry): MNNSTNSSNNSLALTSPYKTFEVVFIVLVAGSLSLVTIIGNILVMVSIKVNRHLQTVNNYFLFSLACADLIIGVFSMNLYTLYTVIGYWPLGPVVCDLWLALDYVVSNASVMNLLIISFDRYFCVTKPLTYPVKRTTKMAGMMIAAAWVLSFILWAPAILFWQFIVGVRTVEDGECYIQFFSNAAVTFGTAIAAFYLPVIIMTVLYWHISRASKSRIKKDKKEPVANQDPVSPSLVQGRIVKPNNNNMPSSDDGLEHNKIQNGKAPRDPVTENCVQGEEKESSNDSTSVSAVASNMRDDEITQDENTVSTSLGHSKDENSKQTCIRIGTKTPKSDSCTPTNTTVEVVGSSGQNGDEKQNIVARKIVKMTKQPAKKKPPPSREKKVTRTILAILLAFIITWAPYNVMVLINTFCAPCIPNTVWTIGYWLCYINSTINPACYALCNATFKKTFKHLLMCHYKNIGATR
In words: Agonist activity at M2 receptor (unknown origin) at 3 uM by calcium mobilization assay. Format: functional.

The target of series [14] is T4, Muscarinic acetylcholine receptor M5 (Homo sapiens) (UniProt P08912).
T4 sequence (whole entry): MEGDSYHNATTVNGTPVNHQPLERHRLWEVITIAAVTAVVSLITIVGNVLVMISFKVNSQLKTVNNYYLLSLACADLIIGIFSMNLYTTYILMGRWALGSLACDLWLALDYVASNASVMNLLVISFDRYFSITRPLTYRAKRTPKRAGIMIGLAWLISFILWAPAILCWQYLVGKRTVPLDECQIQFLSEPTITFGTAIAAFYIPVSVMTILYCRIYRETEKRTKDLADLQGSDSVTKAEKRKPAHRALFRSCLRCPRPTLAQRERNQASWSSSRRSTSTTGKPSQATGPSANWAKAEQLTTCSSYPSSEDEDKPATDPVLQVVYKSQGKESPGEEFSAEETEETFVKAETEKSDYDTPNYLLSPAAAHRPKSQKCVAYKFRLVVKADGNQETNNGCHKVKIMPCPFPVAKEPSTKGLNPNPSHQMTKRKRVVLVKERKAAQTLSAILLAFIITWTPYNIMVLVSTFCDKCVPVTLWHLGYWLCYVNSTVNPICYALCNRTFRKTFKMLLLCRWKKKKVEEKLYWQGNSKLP
In words: Agonist activity at M5 receptor (unknown origin) at 3 uM by calcium mobilization assay. Format: functional.

Series [15] has as its system Cynomolgus monkey. Kind of series: Induction of miosis in sc dosed cynomolgus monkey. Format: organism-based, Macaca fascicularis. The following applies: in vivo.
Series [16] concerns Mus musculus. In words: Induction of seizures in ddY mouse at 300 mg/kg, sc measured for 45 mins after drug injection. It counts as organism-based. Also noted: dose 300 mg/kg, route subcutaneous. The following applies: in vivo, 0.75 h.
Series [17] concerns the target T2, Muscarinic acetylcholine receptor M4 (Homo sapiens). Kind of series: Agonist activity at M4 receptor (unknown origin) at 10 uM by calcium mobilization assay. Format: functional.
Series [18] addresses Voltage-gated inwardly rectifying potassium channel KCNH2 (Homo sapiens, UniProt Q12809). In words: Inhibition of human ERG assessed as decrease in tail current amplitude measured after 5 mins by whole cell patch clamp technique. On the technique in general: Patch clamp records ionic current or voltage across a cell membrane.
Series [19] addresses T4, Muscarinic acetylcholine receptor M5 (Homo sapiens). In words: Partial agonist activity at human M5 receptor in CHO cells assessed as calcium mobilization at 3 uM after 60 mins by FLIPR assay. Format: functional, cell-based.
Series [20] addresses Muscarinic acetylcholine receptor M3 (Homo sapiens) (UniProt P20309). Kind of series: Partial agonist activity at human M3 receptor in CHO cells assessed as calcium mobilization at 3 uM after 60 mins by FLIPR assay. It counts as functional, cell-based.
Series [21] addresses T3, Muscarinic acetylcholine receptor M2 (Homo sapiens). In words: Partial agonist activity at human M2 receptor co-expressed with Galpha16 in CHO cells assessed as calcium mobilization at 3 uM after 60 mins by FLIPR assay. It counts as functional, cell-based.
Series [22] addresses T5, Muscarinic acetylcholine receptor M4 (Homo sapiens, UniProt P08173).
T5 sequence (P08173 whole entry): T2 sequence (whole entry)
In words: (§1) Partial agonist activity at human M4 receptor co-expressed with Galpha16 in CHO cells assessed as calcium mobilization after 60 mins by FLIPR assay. It counts as functional, cell-based.

The target of series [23] is T2, Muscarinic acetylcholine receptor M4 (Homo sapiens). The series is described as §1. Format: functional, cell-based.
Series [24] addresses T1, Muscarinic acetylcholine receptor M1 (Homo sapiens). In words: Partial agonist activity at human M1 receptor in CHO cells assessed as calcium mobilization at 3 uM after 60 mins by FLIPR assay. Format: functional, cell-based.
For series [25], the species on record is Rattus norvegicus. The conditions noted are these: Sprague-Dawley, 0.1 to 1 mg/kg.
Series [26] deals with T2, Muscarinic acetylcholine receptor M4 (Homo sapiens). In words: Partial agonist activity at human M4 receptor co-expressed with Galpha16 in CHO cells assessed as calcium mobilization at 3 uM after 60 mins by FLIPR assay. Format: functional, cell-based.
Series [27] has the same target. In words: Partial agonist activity at human M4 receptor co-expressed with Galpha16 in CHO cells assessed as calcium mobilization at 30 nM after 60 mins by FLIPR assay. Format: functional, cell-based.

Chain of Voltage-gated inwardly rectifying potassium channel KCNH2 (Q12809 whole entry): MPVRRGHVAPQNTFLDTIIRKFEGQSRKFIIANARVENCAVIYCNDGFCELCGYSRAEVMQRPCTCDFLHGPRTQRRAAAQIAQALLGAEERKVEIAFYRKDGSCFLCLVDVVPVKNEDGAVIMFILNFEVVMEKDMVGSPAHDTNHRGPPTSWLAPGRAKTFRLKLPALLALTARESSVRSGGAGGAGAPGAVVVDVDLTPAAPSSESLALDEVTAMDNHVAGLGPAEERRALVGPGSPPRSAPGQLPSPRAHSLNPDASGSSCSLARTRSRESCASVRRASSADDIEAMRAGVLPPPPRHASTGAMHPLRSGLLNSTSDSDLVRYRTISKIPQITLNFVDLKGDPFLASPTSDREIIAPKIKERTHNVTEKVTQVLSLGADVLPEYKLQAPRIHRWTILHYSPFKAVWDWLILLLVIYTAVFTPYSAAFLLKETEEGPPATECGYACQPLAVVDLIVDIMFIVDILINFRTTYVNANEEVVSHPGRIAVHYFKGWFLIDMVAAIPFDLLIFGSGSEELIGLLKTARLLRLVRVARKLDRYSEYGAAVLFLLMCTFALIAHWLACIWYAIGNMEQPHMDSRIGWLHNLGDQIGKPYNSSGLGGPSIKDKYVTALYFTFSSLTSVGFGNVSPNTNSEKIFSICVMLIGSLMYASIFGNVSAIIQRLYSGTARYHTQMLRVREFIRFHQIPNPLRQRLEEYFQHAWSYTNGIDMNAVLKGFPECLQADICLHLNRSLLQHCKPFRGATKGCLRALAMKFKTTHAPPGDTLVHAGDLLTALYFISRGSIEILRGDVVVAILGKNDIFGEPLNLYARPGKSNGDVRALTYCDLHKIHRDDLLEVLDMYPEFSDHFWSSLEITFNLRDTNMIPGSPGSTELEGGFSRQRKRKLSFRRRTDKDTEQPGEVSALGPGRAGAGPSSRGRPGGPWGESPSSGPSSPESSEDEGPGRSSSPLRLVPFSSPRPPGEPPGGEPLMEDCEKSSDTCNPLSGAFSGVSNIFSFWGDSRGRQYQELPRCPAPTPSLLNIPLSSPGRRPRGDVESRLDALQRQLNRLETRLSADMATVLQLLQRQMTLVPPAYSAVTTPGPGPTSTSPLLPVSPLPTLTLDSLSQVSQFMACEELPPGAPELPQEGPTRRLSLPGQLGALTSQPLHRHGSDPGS

As to `CCCCCCOc1nsnc1C1=CCCN(C)C1.O=C(O)C(O)C(O)C(=O)O` [XANOMELINE TARTRATE], the Activity entry with Cynomolgus monkey [1] is “Toxic”; with Mus musculus [2] it was “Toxic”; in series [3] it was 145%; in the series with Cynomolgus monkey [4] it was “Toxic”; with Cynomolgus monkey [5], “Toxic”; in the series with Rattus norvegicus [6], “Toxic”. Also, the Activity result is “Toxic” in the series with Cynomolgus monkey [7]; “Toxic” with Cynomolgus monkey [8]; 85% in series [9]; “Toxic” in the series on Cynomolgus monkey [10]; “Toxic” in the series on Cynomolgus monkey [11]; 83% in series [12]. Moreover, the Activity in [13] was 34%; in series [14] it was 33%; with Cynomolgus monkey [15], “Toxic”.

Consider `CCOC(=O)N1CCC(CN2CCCC(N3C(=O)Cc4ccccc43)CC2)CC1` (stereo unspecified), for which the Activity in series [3] is 7%; in series [9], 2%; in [12], 4%; in series [13], 4%; in series [14], 3%.

With `CCOC(=O)N1CCC(CN2CCC(N3C(=O)Cc4ccccc43)CC2)CC1`, the Activity is 88% in series [3]; 2% in [9]; 33% in series [12]; 6% in [13]; 6% in [14].

Take `CC[C@@H]1C(=O)OC[C@@H]1Cc1cncn1C` [PILOCARPINE]: the Activity result in the series on Mus musculus [16] is reported as “Toxic”.

As to `CC(C)=CCN1CCC(N2C(=O)C(C)(C)c3ccccc32)CC1`, the values for the Activity in series [17] and in series [12] were 33% and 14%, respectively.

On to `CCOC(=O)N1CCC(C)(CN2CC[C@H](N3C(=O)Cc4ccccc43)C2)CC1`, for which, in [18], the IC50 was 3500 nM. The Activity in series [19] is 4%; in series [20], 2%; in series [21], 3%; in [24] it was 49%. Moreover, the EC50 in [22] came out at 15 nM. The Intrinsic activity in [23] turned out to be 65%.

`CCOC(=O)N1CCC(CN2CC(N3C(=O)Cc4ccccc43)C2)CC1`: the Activity in [3] turned out to be 65%; in series [9], 3%; in series [12] it was 46%; in [13], 2%; in series [14] it was 3%.

For the compound `CO/N=C(\C#N)[C@H]1CN2CCC1CC2` [SABCOMELINE], the inhibition entry in the series filed under Rattus norvegicus [25] was “Active”. In addition, in series [22], the EC50 turned out to be 5.7 nM. The Intrinsic activity in series [23] turned out to be 28%.

Consider `CCOC(=O)N1CCC(CN2CC[C@H](N3C(=O)Cc4ccccc43)C2)(OC)CC1`, for which, in series [26], the Intrinsic activity worked out at 13%.

`CCOC(=O)N1CCC(O)(CN2CC[C@H](N3C(=O)Cc4ccccc43)C2)CC1`: in series [18], the IC50 amounted to 3900 nM. In addition, the Activity stood at 3% in series [19], 31% in series [20], 12% in [21] and 57% in [24]. The EC50 in [22] worked out at 320 nM. The Intrinsic activity in series [23] worked out at 45%.

On to `CCOC(=O)N1CCC(CN2CC[C@@H](N3C(=O)Cc4ccccc43)C2)CC1`, for which the Activity in series [3] turned out to be 88%; in series [9], 8%; in series [12], 86%; in series [13], 27%; in series [14], 4%.

With `CCOC(=O)N1CCC(CN2CC[C@H](N3C(=O)Cc4ccccc43)C2)CC1`, the Activity in series [19] is 5%; in series [20], 7%; in series [3] it was 83%; in [21], 30%; in series [24], 83%; in series [9], 7%. Further, the Activity in series [12] amounted to 124%; in series [13], 30%; in series [14] it was 5%. Also, the Intrinsic activity in series [27] was found to be 79%.
